Patent US10456405B2, “Nitric oxide-releasing prodrug molecule of substituted quinazolines” (ZHEJIANG HUAHAI PHARMACEUTICAL CO., LTD, priority 2015, dated 2019)
Each block holds one compound with its values, some of them ahead of it.

Key:
[1] = Release of HNO (headspace gas chromatography of nitrous oxide); conditions: PBS pH 7.4, 37° C., argon, 90 min
Method: Experiment 2. Experimental study on the tested compounds for releasing HNO HNO rapidly dimerizes and dehydrates to produce nitrous oxide in aqueous solution. In the experiment of detecting HNO, gas chromatographic headspace analysis is generally used to determine the amount of the released nitrous oxide, thereby indirectly detect the level of releasing HNO of the compound.
Experimental procedure: Each of the tested compounds was prepared to 20 mg/mL of mother liquor with DMF. Prior to the start of the experiment, 50 μL of drug mother liquor was placed into a 20 mL headspace sample vial. The tested compound was diluted by adding 5 mL of PBS buffer with pH 7.4. The temperature of the resulting sample was kept at 37° C. under argon gas for 90 min. Then the top gas was extracted for gas chromatographic analysis of nitrous oxide by using Angeli's Salt as a positive compound in the experiment.

[2] = Release of nitric oxide in vitro (Griess reagent, nitrite); conditions: for Amount of Released No: 10^−4 mol/L tested substance, phosphate buffer pH 7.4, cysteine 5 mmol/L, 37° C., 1 h, as nitrite
Method: Experiment 1. Experimental Study on the Tested Compounds for Releasing Nitric Oxide in vitro
Experimental Procedure: • (1) Preparation of Griess Reagent: 4 g of aminobenzenesulfonamide, 0.2 g of N-naphthyl ethylene diamine hydrochloride, and 10 mL of 85% phosphoric acid solution were taken to form a solution, which is diluted to 100 mL with distilled water. • (2) Plotting of the standard curve: a serie of standard solution of 0.01, 0.03, 0.05, 0.07, 0.09, 0.2, 0.4 μg/mL of nitrite nitrogen was prepared, 10 mL of each was taken to sufficiently mix with 2.5 mL of Griess reagent, standing at room temperature for 10 min, and its absorbance value at the wavelength of 540 nm was measured. The standard curve was plotted based on the resulting data. • (3) Measuring the amount of the released NO of the tested drug: all of the tested substances were dissolved in dimethylsulfoxide (1 mL) firstly. Then phosphate buffer (pH 7.4) was slowly added dropwise, and shaken. The drug solution was diluted to 50 mL, allowing the buffer solution to contain excess cysteine (5 mmol/L), and the final concentration of the tested substances being 10^−4 mol/L; the solution was incubated at 37° C. 2 mL of the reaction solution was taken to mix with 500 μl of Griess reagent at 1 h respectively, standing at room temperature for 10 min. The absorbance value of the mixture at 540 nm was measured. Isosorbide mononitrate was used as a positive control, and H130 was used as a negative control. The amount of the released NO was represented by the amount of its oxidation product, nitrite (NO2^−).

[3] = Plasma stability in vitro, mouse plasma; conditions: CD-1 mice plasma, 2 μM, 37° C., in % (unit assumed)
Method: (§1) Experimental method: The tested compounds (2 μM) were added into mouse or human plasma, and incubated at 37° C. Samples were taken at 0, 10, 30, 60 and 120 min respectively. The reaction was stopped by adding a stop agent. The mixture was sufficient shaken, and centrifuged at 4000 rpm for 10 min at 4° C. The supernatant was taken. The concentrations of the tested compounds and their metabolite (H130) in the supernatant were measured by LC-MS/MS.

[4] = Plasma stability in vitro, human plasma; conditions: for Content of Tested Substance (n = 2): human plasma, 2 μM, 37° C., in % (unit assumed); for stability in human plasma: within 2 h
Method: as §1

Compound: 2-(N-((2-(4-(5,7-dimethoxy-4-oxo-3,4-dihydro-quinazolin-2-yl)-2,6-dimethyl-phenoxy]-ethoxy) carbonyl)oxy)sulfamoyl)-1-methyl-1H-pyridine 1-2-onium salt [Compound H122]
Molar Quantities of N2O/Sample [1]: 18.3%

Compound: 3-(nitroxy)-2,2-di(nitroxymethyl) propyl 4-(2-[4-(5,7-dimethoxy-4-oxo-3,4-dihydro-quinazolin-2-yl)-2,6-dimethyl-phenoxy] butyl)-4-oxo-2-acetamino-butyrate [Compound H124]
Amount of Released No [2]: 2.89 µM

Compound: [Na+].[Na+].[O-][N+]([O-])=NO [Angeli's Salt, reference compound]
Molar Quantities of N2O/Sample [1]: 62.4%

Content of Tested Substance (n = 2) ([3]; 0 min): 100.0 | Content of Tested Substance (n = 2) ([3]; 10 min): 10.8 | Content of Tested Substance (n = 2) ([3]; 30 min): 1.3 | Content of Tested Substance (n = 2) ([3]; 60 min): 3.1 | Content of Tested Substance (n = 2) ([3]; 120 min): 1.8 | Content of Tested Substance (n = 2) ([4]; 0 min): 100.0 | Content of Tested Substance (n = 2) ([4]; 10 min): 101.5 | Content of Tested Substance (n = 2) ([4]; 30 min): 98.4 | Content of Tested Substance (n = 2) ([4]; 60 min): 95.0 | Content of Tested Substance (n = 2) ([4]; 120 min): 84.5 | stability in human plasma [4]: good stability
Compound: COc1cc(OC)c2c(=O)[nH]c(-c3cc(C)c(OCCOC(=O)c4cccc(CO[N+](=O)[O-])c4)c(C)c3)nc2c1 [Compound H102, 2-[4-(5,7-dimethoxy-4-oxo-3,4-dihydro-quinazolin-2-yl)-2,6-dimethyl-phenoxy]-ethyl 3-nitroxymethyl-benzoate]
time after which NO is produced [2]: ≥ 2 h | Amount of Released No [2]: -0.55 µM | NO release detected within 1 h ([2]; within 1 h): does not produce NO within 1 h

Content of Tested Substance (n = 2) ([3]; 0 min): 100.0 | Content of Tested Substance (n = 2) ([3]; 10 min): 0.0 | Content of Tested Substance (n = 2) ([3]; 30 min): 0.0 | Content of Tested Substance (n = 2) ([3]; 60 min): 0.0 | Content of Tested Substance (n = 2) ([3]; 120 min): 0.0 | Content of Tested Substance (n = 2) ([4]; 0 min): 100.0 | Content of Tested Substance (n = 2) ([4]; 10 min): 97.3 | Content of Tested Substance (n = 2) ([4]; 30 min): 89.6 | Content of Tested Substance (n = 2) ([4]; 60 min): 83.3 | Content of Tested Substance (n = 2) ([4]; 120 min): 86.9 | stability in human plasma [4]: good stability
Compound: COc1cc(OC)c2c(=O)[nH]c(-c3cc(C)c(OCCOC(=O)ONS(=O)(=O)c4ccc(C)s4)c(C)c3)nc2c1 [Compound H103, N-((2-(4-(5,7-dimethoxy-4-oxo-3,4-dihydroquinazolin-2-yl)-2,6-dimethylphenoxy)ethoxy)carbonyloxy)-5-methylthiophene-2-sulfonamide]
Molar Quantities of N2O/Sample [1]: 19.7%

Compound: COc1cc(OC)c2c(=O)[nH]c(-c3cc(C)c(OCCOC(=O)C(O)CC(=O)OCc4c(-c5ccccc5)no[n+]4[O-])c(C)c3)nc2c1 (stereo not shown) [Compound H113, 2-[4-(5,7-dimethoxy-4-oxo-3,4-dihydro-quinazolin-2-yl)-2,6-dimethyl-phenoxy]-ethyl (2-oxo-4-phenyl-furazan-3-yl)-methyl 2-hydroxy succinate]
Amount of Released No [2]: 45.63 µM

Compound: COc1cc(OC)c2c(=O)[nH]c(-c3cc(C)c(OCCOC(=O)/C=C/C(=O)ONS(=O)(=O)c4ccco4)c(C)c3)nc2c1 [Compound H115, 2-[4-(5,7-dimethoxy-4-oxo-3,4-dihydro-quinazolin-2-yl)-2,6-dimethyl-phenoxy]-ethyl (E)-4-((furan-2-sulfonylamino)oxy)-4-oxo-2-crotonate]
Molar Quantities of N2O/Sample [1]: 17.8%

Compound: COc1cc(OC)c2c(=O)[nH]c(-c3cc(C)c(OCCOC(=O)CCC(=O)N4CCN(CCO[N+](=O)[O-])CC4)c(C)c3)nc2c1 [Compound H117, 2-[4-(5,7-dimethoxy-4-oxo-3,4-dihydro-quinazolin-2-yl)-2,6-dimethyl-phenoxy]-ethyl 4-[4-(2-(nitroxy)ethyl)-piperazin-1-ly]-4-oxo-butyrate]
Amount of Released No [2]: 1.36 µM

Compound: COc1cc(OC)c2c(=O)[nH]c(-c3cc(C)c(OCCOC(=O)NC4COC5C(O[N+](=O)[O-])COC45)c(C)c3)nc2c1 (stereo not shown) [Compound H120, 2-[4-(5,7-dimethoxy-4-oxo-3,4-dihydro-quinazolin-2-yl)-2,6-dimethyl-phenoxy]-ethyl (6-nitroxy-hexahydrofuro[3,2-b]furan-3-yl)-carbamate]
Amount of Released No [2]: 1.32 µM

Compound: COc1cc(OC)c2c(=O)[nH]c(-c3cc(C)c(OCCOC(=O)CCC(=O)ONS(=O)(=O)c4ccc(Cl)s4)c(C)c3)nc2c1 [Compound H121, 2-[4-(5,7-dimethoxy-4-oxo-3,4-dihydro-quinazolin-2-yl)-2,6-dimethyl-phenoxy]-ethyl 4-(((5-chlorothiophene)-2-sulfonylamino)oxy)-4-oxo-butyrate]
Molar Quantities of N2O/Sample [1]: 24.6%
